# Patent US4855287A, “Aminoglycoside compounds, processes for production thereof, and pharamaceutical composition containing the same” (Kowa Company, Ltd., priority 1985, dated 1989)
# Like-named read-outs stand apart in the source and are kept apart here.
# How the values were obtained:
# [1] = system: Bacillus subtilis ATCC 6633; assay: Test for antibacterial activity (paper disk, diameter of inhibitory zone, before and after incubation in rat liver/kidney homogenate); assay type: cell-based; details: 200 mcq/ml, 8 mm paper disk
# Method: Each of the test compounds shown in the following table was dissolved in a concentration of 200 mcq/ml in a homogenate of a 10% physiological saline solution of an organ of a rat, and incubated at 37° C. for 2 hours. An enzymatic reaction was stopped by adding an equal amount of ethanol. The antibacterial activity of the test compound before incubation was compared with that after incubation. The incubation was carried out in an equal amount mixture of a liver homogenate and a kidney homogenate. The antibacterial activity was measured by a paper disk having a diameter of 8 mm using Bacillus subtilis ATCC 6633 as a test organism, and shown by the diameter of the resulting inhibitory zone.
# [2] = Test for concentrations in blood, intrarectal administration; parameters: species or system Male rats; details: rat, in vivo
# Method: Male rats (body weight 250-350 g: n=3) which had been caused to fast for 18 hours prior to administration were anesthetized with pentobarbirtal. After the abdomen was incised, the upper part of the duodenum was tied. Each of the test compounds was dissolved in water so that its concentration became 12.5 mg/ml as its starting antibiotic (the compound of formula II), and the solution was intraduodenally administered to the rats in a dose of 2 ml/kg. After the administration, blood was drawn periodically from the tail vein, and the concentration of the starting antibiotic in the blood was measured by antimicrobial assay and liquid chromatography.
# Male rats (body weight 250-350 g: n=3) which had been caused to fast for 18 hours prior to administration were anesthetized with pentobarbirtal. After the abdomen was incised, the lower part of the rectum was tied. Each of the test compounds was administered intrarectally in the same dose in the same manner as in (1) above, and the concentration of the starting antibiotic in the blood was measured in the same way as in (1) above.
# [3] = ATCC6633, after incubation at 37° C. for 2 hours in rat liver homogenate and kidney homogenate, read-out: Diameter of the inhibitory zone, after incubation
# [4] = ATCC6633, before incubation, read-out: Diameter of the inhibitory zone, before incubation
smiles,measurement,setting,value
"CC(=O)OC1CCC2(C)C(CCC3C2CC(OC(C)=O)C2(C)C(C(C)CCC(=O)OCCCCOC(=O)CCC(N)C(=O)NCC(=O)N(C)C4C(O)CC(N)C(OC5OC(C(C)N)CCC5N)C4O)CCC32)C1 [Example 27, 2""-N-{γ-O-[4-(3,12-di-O-acetyldeoxycholyloxy)butyl]-L-glutamyl}-5-de-O-methyl-KA-6606I]",zone of inhibition at 200 µg/mL,[1]; [3],23.2 mm
same,zone of inhibition at 200 µg/mL,[1]; [4],13.5 mm
same,Maximum concentration in blood Cmax,[2],5300 ng/mL
same,Tmax,[2],30 min
"CC(N)C1CCC(N)C(OC2C(N)CC(O)C(N(C)C(=O)CNC(=O)[C@@H](N)CCC(=O)OCCCOC(=O)CC[C@@H](C)[C@H]3CC[C@H]4[C@@H]5CC[C@@H]6C[C@H](O)CC[C@]6(C)[C@H]5C[C@H](O)[C@]34C)C2O)O1 (stereo partly drawn) [Example 20, 2""-N-[γ-O-(3-deoxycholyloxypropyl)-L-glutamyl]-5-de-O-methyl-KA-6606I]",zone of inhibition at 200 µg/mL,[1]; [3],21.8 mm
same,zone of inhibition at 200 µg/mL,[1]; [4],14.1 mm
same,Maximum concentration in blood Cmax,[2],7760 ng/mL
same,Tmax,[2],30 min
"CCCCCCCCCC(=O)OCC(COC(=O)CC[C@H](N)C(=O)NCC(=O)N(C)C1C(O)CC(N)C(OC2OC(C(C)N)CCC2N)C1O)OC(=O)CCCCCCCCC (stereo partly drawn) [Example 17, 2""-N-[γ-O-(2,3-bis-decanoyloxypropyl)-L-glutamyl]-5-de-O-methyl-KA-66606I]",zone of inhibition at 200 µg/mL,[1]; [3],19.7 mm
same,zone of inhibition at 200 µg/mL,[1]; [4],10.6 mm
